According to ChEMBL document CHEMBL4145634, “Discovery of Janus Kinase 2 (JAK2) and Histone Deacetylase (HDAC) Dual Inhibitors as a Novel Strategy for the Combinational Treatment of Leukemia and Invasive Fungal Infections” (J Med Chem, 2018):
≈ marks a conversion by molar mass, not a printed value. Calls of active or inactive are those of the source. The calls are words filed in the database; no cut-off is given here.

Assays:
[1] = tested on: Mus musculus; assay: Toxicity in BALB/C nude mouse xenografted with human HEL cells at 10 mg/kg, ip bid treated for 21 consecutive days; assay type: organism-based; settings: in vivo
[2] = tested on: Mus musculus; assay: Protection against spleen enlargement in SCID mouse xenografted with human HEL cells at 10 mg/kg, ip qd; assay type: functional, organism-based
[3] = tested on: K562; assay: Antiproliferative activity against human K562 cells after 48 hrs by CCK-8 assay; assay type: functional, cell-based; settings: K562, 48 h
[4] = tested on: Mus musculus; assay: In vivo antifungal activity against FLC resistant Candida albicans 0304103 infected in ICR mouse assessed as mouse survival at 5 mg/kg, ip qd up to 20 days in co-treated with 1 mg/kg, ip qd fluconazol (reference value: 4.5 day); assay type: functional
[5] = tested on: HEL; assay: Antitumor activity against human HEL cells xenografted in BALB/C nude mouse assessed as tumor growth at 10 mg/kg, ip bid treated for 21 consecutive days relative to control; assay type: functional
[6] = tested on: Mus musculus; assay: Toxicity in BALB/C nude mouse xenografted with human HEL cells assessed as reduction in body weight at 10 mg/kg, ip bid treated for 21 consecutive days; assay type: organism-based; settings: in vivo
[7] = tested on: HEL; assay: Antitumor activity in human HEL cells xenografted in SCID mouse assessed as mouse survival at 10 mg/kg, ip qd measured after 10 days; assay type: functional, organism-based
[8] = tested on: Candida albicans; assay: microbe, parasite or virus in culture; assay type: functional; settings: Candida albicans, 0710922, 48 h
Description: Antifungal activity against FLC resistant Candida albicans 0710922 after 48 hrs by checkerboard microdilution method

[9] = tested on: Mus musculus; assay: In vivo antifungal activity against FLC resistant Candida albicans 0304103 infected in ICR mouse assessed as mouse survival at 5 mg/kg, ip qd up to 20 days (reference value: 4.5 day); assay type: functional, organism-based
[10] = tested on: HEL; assay: Antitumor activity in human HEL cells xenografted in SCID mouse assessed as mouse survival time at 10 mg/kg, ip qd; assay type: functional
[11] = tested on: HEL; assay: Cell cycle arrest in human HEL cells assessed as accumulation at G1 phase at 1 to 5 uM after 48 hrs propidium iodide staining based flow cytometry; assay type: functional
[12] = tested on: HL-60; assay: Antiproliferative activity against human HL60 cells after 48 hrs in presence of JAK2 inhibitor CYT-387 by CCK-8 assay; assay type: functional, cell-based; settings: HL-60, 48 h
[13] = tested on: Candida albicans; assay: microbe, parasite or virus in culture; assay type: functional; settings: Candida albicans, 0304103, 48 h
Description: Antifungal activity against FLC resistant Candida albicans 0304103 after 48 hrs by checkerboard microdilution method

[14] = tested on: Candida albicans; assay: Antifungal activity against FLC resistant Candida albicans 100 after 48 hrs by checkerboard microdilution method; assay type: functional; settings: Candida albicans, 100, 48 h
[15] = tested on: HL-60; assay: Antiproliferative activity against human HL60 cells after 48 hrs by CCK-8 assay; assay type: functional, cell-based; settings: HL-60, 48 h
[16] = tested on: HEL; assay: Antitumor activity against human HEL cells xenografted in BALB/C nude mouse assessed as tumor growth inhibition at 10 mg/kg, ip bid treated for 21 consecutive days relative to control; assay type: functional; settings: read-out: TGI
[17] = tested on: HEL; assay: Antiproliferative activity against human HEL cells after 48 hrs in presence of JAK2 inhibitor CYT-387 by CCK-8 assay; assay type: functional, cell-based
[18] = tested on: HEL; assay: Antiproliferative activity against human HEL cells after 48 hrs by CCK-8 assay; assay type: functional, cell-based
[19] = tested on: K562; assay: Antiproliferative activity against human K562 cells after 48 hrs in presence of JAK2 inhibitor CYT-387 by CCK-8 assay; assay type: functional, cell-based; settings: K562, 48 h
[20] = tested on: Candida albicans; assay: Antifungal activity against FLC resistant Candida albicans 100 after 48 hrs in presence of fluconazol by checkerboard microdilution method; assay type: functional; settings: Candida albicans, 100, 48 h
[21] = tested on: HEL; assay: Induction of apoptosis in human HEL cells at 10 uM after 48 hrs by Annexin-V-FITC/propidium iodide staining based flow cytometry relative to control; assay type: functional
[22] = tested on: Candida albicans; assay: Synergistic antifungal activity against FLC resistant Candida albicans 0304103 assessed as FIC index after 48 hrs by checkerboard microdilution method; assay type: functional
[23] = tested on: Candida albicans; assay: Synergistic antifungal activity against FLC resistant Candida albicans 100 assessed as FIC index after 48 hrs by checkerboard microdilution method; assay type: functional
[24] = tested on: Candida albicans; assay: microbe, parasite or virus in culture; assay type: functional; settings: Candida albicans, 100, 48 h
Description: Antifungal activity against FLC resistant Candida albicans 100 assessed as fluconazol MIC50 after 48 hrs by checkerboard microdilution method

[25] = tested on: Candida albicans; assay: Synergistic antifungal activity against FLC resistant Candida albicans 0710922 assessed as FIC index after 48 hrs by checkerboard microdilution method; assay type: functional
[26] = tested on: Candida albicans; assay: microbe, parasite or virus in culture; assay type: functional; settings: Candida albicans, 0304103, 48 h; remark: listed apart in the source
Description: Antifungal activity against FLC resistant Candida albicans 0304103 assessed as fluconazol MIC50 after 48 hrs by checkerboard microdilution method

[27] = tested on: Candida albicans; assay: microbe, parasite or virus in culture; assay type: functional; settings: Candida albicans, 0710922, 48 h; remark: listed apart in the source
Description: Antifungal activity against FLC resistant Candida albicans 0710922 assessed as fluconazol MIC50 after 48 hrs by checkerboard microdilution method

[28] = tested on: Candida albicans; assay: microbe, parasite or virus in culture; assay type: functional; settings: Candida albicans, 0304103, 48 h; remark: listed apart in the source
Description: Antifungal activity against FLC resistant Candida albicans 0304103 after 48 hrs in presence of fluconazol by checkerboard microdilution method

[29] = tested on: Candida albicans; assay: microbe, parasite or virus in culture; assay type: functional; settings: Candida albicans, 0710922, 48 h; remark: listed apart in the source
Description: Antifungal activity against FLC resistant Candida albicans 0710922 after 48 hrs in presence of fluconazol by checkerboard microdilution method

[30] = tested on: Candida albicans; assay: Antifungal activity against FLC resistant Candida albicans 0304103 at 1 ug/ml up to 24 hrs by checkerboard microdilution method; assay type: functional, organism-based
[31] = tested on: Mus musculus; assay: In vivo antifungal activity against FLC resistant Candida albicans 0304103 infected in ICR mouse assessed as mouse survival at 1 mg/kg, ip qd up to 20 days (reference value: 4.5 day); assay type: functional
[32] = tested on: HEL; assay: Cell cycle arrest in human HEL cells assessed as accumulation at G1 phase at 1 to 10 uM after 48 hrs propidium iodide staining based flow cytometry; assay type: functional

Row | SMILES | Activity [1] | Activity [2] | IC50 [3] | MST [4] | T/C [5] | Activity [6] | Activity [7] | MIC50 [8] | Activity [9] | Activity [10] | IC50 [12] | MIC50 [13] | MIC50 [14] | IC50 [15] | inhibition in vivo at 10 mg/kg [16] | IC50 [17] | IC50 [18] | IC50 [19] | further results
1 | O=C(CCCCCCC(=O)Nc1ccccc1)NO [VORINOSTAT] | Non-Toxic | inactive | 7.7 µM | 10 days | 87.9% | Non-Toxic | inactive |  |  |  |  |  |  |  |  |  |  |  | 
2 | CN1CCc2c(c3ccccc3n2Cc2ccc(C(=O)NO)cc2)C1 [TUBASTATIN A] |  | inactive | 3.75 to 23.9 µM | 4.5 days |  |  |  | > 64 µg/mL | inactive | inactive | 2.54 to 8.55 µM | > 64 µg/mL | > 64 µg/mL | 3.75 to 23.9 µM | 18.8% | 2.54 to 8.55 µM | 3.75 to 23.9 µM | 2.54 to 8.55 µM | Activity [11]: Active
3 | N#CCNC(=O)c1ccc(-c2ccnc(Nc3ccc(N4CCOCC4)cc3)n2)cc1 [MOMELOTINIB] | Non-Toxic | inactive | 6.5 µM | 5.5 days | 68.3% | Non-Toxic | inactive | > 64 µg/mL |  |  |  | > 64 µg/mL | > 64 µg/mL | 8.3 µM | 40.2% |  | 2.3 µM |  | MIC50 [20]: > 64 µg/mL; Activity [21]: 25.9%; fractional inhibitory concentration index (FICI) [22]: >2; fractional inhibitory concentration index (FICI) [23]: >2; MIC50 [24]: > 64 µg/mL; fractional inhibitory concentration index (FICI) [25]: 2; MIC50 [26]: > 64 µg/mL; MIC50 [27]: 64 µg/mL (≈ 154 µM); MIC50 [28]: > 64 µg/mL; MIC50 [29]: 64 µg/mL (≈ 154 µM)
4 | OC(Cn1cncn1)(Cn1cncn1)c1ccc(F)cc1F [FLUCONAZOLE] |  |  |  |  |  |  |  | > 64 µg/mL |  |  |  | > 64 µg/mL | > 64 µg/mL |  |  |  |  |  | Activity [30]: inactive; MST [31]: 7.5 days
5 | O=C(CCCCCCNC(=O)c1cnc(N(c2ccccc2)c2ccccc2)nc1)NO [RICOLINOSTAT] |  | inactive | 3.75 to 23.9 µM | 5 days |  |  |  | > 64 µg/mL | inactive | inactive | 2.54 to 8.55 µM | > 64 µg/mL | > 64 µg/mL | 3.75 to 23.9 µM | 14.1% | 2.54 to 8.55 µM | 3.75 to 23.9 µM | 2.54 to 8.55 µM | Activity [32]: Active
